From ChEMBL document CHEMBL1201862, “PubChem BioAssay data set” (2004)
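The compound was tested at five concentrations on cells cultured in 96-well plates, with a 48-hour exposure period. GI50 = concentration required for 50% inhibition of growth.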 Active and inactive are the calls of the source. Cut-off read from the data, not from the text of the source: active = GI50 up to about 1.1 µM and inactive = higher.

Key:
Experiment in all cases: DTP human tumour cell line panel, 48 h
OVCAR-4 = tested on: OVCAR-4
NCI-H226 = tested on: NCI-H226
NCI-H460 = tested on: NCI-H460
KM12 = tested on: KM12
TK-10 = tested on: TK-10
SK-OV-3 = tested on: SK-OV-3
SW-620 = tested on: SW-620
CAKI-1 = tested on: CAKI-1
A498 = tested on: A498
IGROV-1 = tested on: IGROV-1
LOX IMVI = tested on: LOX IMVI
M14 = tested on: M14
SK-MEL-2 = tested on: SK-MEL-2
NCI-H522 = tested on: NCI-H522
SF-539 = tested on: SF-539
HCT-116 = tested on: HCT-116
HCC 2998 = tested on: HCC 2998
U-251 = tested on: U-251
EKVX = tested on: EKVX
COLO 205 = tested on: COLO 205
MDA-N = tested on: MDA-N
HOP-62 = tested on: HOP-62
RPMI-8226 = tested on: RPMI-8226
BT-549 = tested on: BT-549
ACHN = tested on: ACHN
SNB-75 = tested on: SNB-75
MCF7 = tested on: MCF7
A549 = tested on: A549
786-0 = tested on: 786-0
OVCAR-3 = tested on: OVCAR-3
Hs-578T = tested on: Hs-578T
MDA-MB-435 = tested on: MDA-MB-435
RXF 393 = tested on: RXF 393
MOLT-4 = tested on: MOLT-4
K562 = tested on: K562
UACC-257 = tested on: UACC-257
HT-29 = tested on: HT-29
SN12C = tested on: SN12C
DU-145 = tested on: DU-145
SF-268 = tested on: SF-268
NCI-H23 = tested on: NCI-H23
NCI/ADR-RES = tested on: NCI/ADR-RES
OVCAR-8 = tested on: OVCAR-8
SNB-19 = tested on: SNB-19
T47D = tested on: T47D
SK-MEL-28 = tested on: SK-MEL-28
Malme-3M = tested on: Malme-3M
HCT-15 = tested on: HCT-15
UACC-62 = tested on: UACC-62
UO-31 = tested on: UO-31
SF-295 = tested on: SF-295
CCRF-CEM = tested on: CCRF-CEM
SK-MEL-5 = tested on: SK-MEL-5
MDA-MB-231 = tested on: MDA-MB-231
PC-3 = tested on: PC-3
OVCAR-5 = tested on: OVCAR-5
HOP-92 = tested on: HOP-92
HL-60 = tested on: HL-60

COC(=O)[C@@]1(NC(=O)C(CC(=O)OC(C)(C)C)NC(=O)OC(C)(C)C)C[C@H]1C (some centres undefined)
GI50 (OVCAR-4): > 100 µM (inactive)
GI50 (NCI-H226): > 100 µM (inactive)
GI50 (NCI-H460): > 100 µM (inactive)
GI50 (KM12): > 100 µM (inactive)
GI50 (TK-10): > 100 µM (inactive)
GI50 (SK-OV-3): > 100 µM (inactive)
GI50 (SW-620): > 100 µM (inactive)
GI50 (CAKI-1): > 100 µM (inactive)
GI50 (A498): > 100 µM (inactive)
GI50 (IGROV-1): > 100 µM (inactive)
GI50 (LOX IMVI): > 100 µM (inactive)
GI50 (M14): > 100 µM (inactive)
GI50 (SK-MEL-2): > 100 µM (inactive)
GI50 (NCI-H522): > 100 µM (inactive)
GI50 (SF-539): > 100 µM (inactive)
GI50 (HCT-116): > 100 µM (inactive)
GI50 (HCC 2998): > 100 µM (inactive)
GI50 (U-251): > 100 µM (inactive)
GI50 (EKVX): > 100 µM (inactive)
GI50 (COLO 205): > 100 µM (inactive)
GI50 (MDA-N): > 100 µM (inactive)
GI50 (HOP-62): > 100 µM (inactive)
GI50 (RPMI-8226): > 100 µM (inactive)
GI50 (BT-549): > 100 µM (inactive)
GI50 (ACHN): > 100 µM (inactive)
GI50 (SNB-75): > 100 µM (inactive)
GI50 (MCF7): > 100 µM (inactive)
GI50 (A549): > 100 µM (inactive)
GI50 (786-0): > 100 µM (inactive)
GI50 (OVCAR-3): > 100 µM (inactive)
GI50 (Hs-578T): > 100 µM (inactive)
GI50 (MDA-MB-435): > 100 µM (inactive)
GI50 (RXF 393): > 100 µM (inactive)
GI50 (MOLT-4): > 100 µM (inactive)
GI50 (K562): > 100 µM (inactive)
GI50 (UACC-257): > 100 µM (inactive)
GI50 (HT-29): > 100 µM (inactive)
GI50 (SN12C): > 100 µM (inactive)
GI50 (DU-145): > 100 µM (inactive)
GI50 (SF-268): > 100 µM (inactive)
GI50 (NCI-H23): > 100 µM (inactive)
GI50 (NCI/ADR-RES): > 100 µM (inactive)
GI50 (OVCAR-8): > 100 µM (inactive)
GI50 (SNB-19): > 100 µM (inactive)
GI50 (T47D): > 100 µM (inactive)
GI50 (SK-MEL-28): > 100 µM (inactive)
GI50 (Malme-3M): > 100 µM (inactive)
GI50 (HCT-15): > 100 µM
GI50 (UACC-62): > 100 µM (inactive)
GI50 (UO-31): > 100 µM (inactive)
GI50 (SF-295): > 100 µM (inactive)
GI50 (CCRF-CEM): > 100 µM (inactive)
GI50 (SK-MEL-5): > 100 µM (inactive)
GI50 (MDA-MB-231): > 100 µM (inactive)
GI50 (PC-3): > 100 µM (inactive)
GI50 (OVCAR-5): > 100 µM (inactive)

Cn1cc(-c2csc(-c3cn(C)c4ccccc34)n2)c2ccccc21
GI50 (OVCAR-4): 22.2 µM (inactive)
GI50 (NCI-H226): 32.2 µM (inactive)
GI50 (NCI-H460): 26.5 µM (inactive)
GI50 (KM12): 43.3 µM (inactive)
GI50 (TK-10): 27 µM (inactive)
GI50 (SW-620): 59.4 µM (inactive)
GI50 (CAKI-1): 17.8 µM (inactive)
GI50 (A498): 12.6 µM (inactive)
GI50 (IGROV-1): 27 µM (inactive)
GI50 (LOX IMVI): 36.4 µM (inactive)
GI50 (M14): 26.7 µM (inactive)
GI50 (SK-MEL-2): 38.8 µM (inactive)
GI50 (NCI-H522): 76.7 µM (inactive)
GI50 (HCT-116): 43.5 µM (inactive)
GI50 (U-251): 32.4 µM (inactive)
GI50 (COLO 205): > 100 µM (inactive)
GI50 (MDA-N): 24.9 µM (inactive)
GI50 (HOP-62): 17.6 µM (inactive)
GI50 (RPMI-8226): 20.7 µM (inactive)
GI50 (BT-549): 56.4 µM (inactive)
GI50 (ACHN): 21.6 µM (inactive)
GI50 (MCF7): 45.5 µM (inactive)
GI50 (A549): 37.6 µM (inactive)
GI50 (786-0): 17.2 µM (inactive)
GI50 (OVCAR-3): 23.5 µM (inactive)
GI50 (Hs-578T): > 100 µM (inactive)
GI50 (MDA-MB-435): 26.4 µM (inactive)
GI50 (RXF 393): 14.1 µM (inactive)
GI50 (MOLT-4): 14.1 µM (inactive)
GI50 (HOP-92): 20.8 µM (inactive)
GI50 (K562): 11.2 µM (inactive)
GI50 (UACC-257): 48.6 µM (inactive)
GI50 (HT-29): > 100 µM (inactive)
GI50 (SN12C): 47.8 µM (inactive)
GI50 (DU-145): 42.9 µM (inactive)
GI50 (SF-268): 58.2 µM (inactive)
GI50 (HL-60): > 100 µM (inactive)
GI50 (NCI-H23): 84.5 µM (inactive)
GI50 (NCI/ADR-RES): > 100 µM (inactive)
GI50 (OVCAR-8): 25.6 µM (inactive)
GI50 (SNB-19): 42.7 µM (inactive)
GI50 (T47D): 2.81 µM (inactive)
GI50 (SK-MEL-28): 61.5 µM (inactive)
GI50 (Malme-3M): 19.1 µM (inactive)
GI50 (HCT-15): > 100 µM
GI50 (UACC-62): 32.2 µM (inactive)
GI50 (UO-31): > 100 µM (inactive)
GI50 (SF-295): 23.4 µM (inactive)
GI50 (CCRF-CEM): > 100 µM (inactive)
GI50 (SK-MEL-5): 26.9 µM (inactive)
GI50 (MDA-MB-231): 17.3 µM (inactive)
GI50 (PC-3): 21.9 µM (inactive)
GI50 (OVCAR-5): 95.9 µM (inactive)
